Reference: PubChem BioAssay (NCI)
Several values for one entry are separate records, joined by “and”; a condition that tells them apart may be missing. Equal entries are not always repeated.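 Grown in 96-well plates, cells were treated for 48 hours with each compound at five concentrations. Insufficient inhibition: endpoint recorded as highest concentration tested. GI50 marks 50% less growth. TGI marks complete inhibition of growth.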

Tests used:
Experiment in all cases: NCI anticancer screen, dose series, 48 h
[1] = test system: SF-268 CNS
[2] = test system: OVCAR-8 ovarian
[3] = test system: UO-31 renal
[4] = test system: COLO 205 colon
[5] = test system: PC-3 prostate
[6] = test system: A549 NSCLC
[7] = test system: SW-620 colon
[8] = test system: UACC-62 melanoma
[9] = test system: MDA-MB-435
[10] = test system: K-562 leukemia

SMILES	GI50 [1]	TGI [1]	GI50 [2]	TGI [2]	GI50 [3]	TGI [3]	GI50 [4]	TGI [4]	GI50 [5]	TGI [5]	GI50 [6]	TGI [6]	GI50 [7]	TGI [7]	GI50 [8]	TGI [8]	GI50 [9]	TGI [9]	GI50 [10]	TGI [10]
CC#CC(=O)N1CC[C@@H](n2c(=O)n(-c3ccc(Oc4ccccc4)cc3)c3c(N)ncnc32)C1	30.3 µM	> 100 µM	40.6 µM	> 100 µM	10.8 µM	> 100 µM	36.6 µM	> 100 µM	29.1 µM	> 100 µM	55 µM	> 100 µM	47.6 µM	> 100 µM	14.8 µM	42.8 µM	27.4 µM	> 100 µM	–	–
Oc1c(CN2CCN(c3ccccc3F)CC2)cc(Br)c2cccnc12	0.858 µM	> 100 µM	0.607 µM	14.5 µM	0.259 µM	3.58 µM	16.1 µM	55 µM	0.807 µM	31.7 µM	0.546 µM	13 µM	0.47 µM	20.2 µM	0.631 µM	4.09 µM	1.31 µM	> 100 µM	0.366 µM	19.6 µM
Cc1c(-c2nnc(-c3cc(Cl)c(Cl)cc3Cl)o2)nnn1-c1ccnc2c(C(F)(F)F)cccc12	25 µM	62.2 µM	–	–	16.8 µM	34.7 µM	17.4 µM	33.2 µM	15.9 µM	37.4 µM	17.8 µM	42.9 µM	30.8 µM	> 100 µM	26.5 µM	> 100 µM	26.8 µM	75.1 µM	33.1 µM	> 100 µM
CC(CN)[C@@H]1CC[C@]2(CO)CC[C@]3(C)[C@H](CC[C@@H]4[C@@]5(C)CCC(N)C(C)(C)[C@@H]5CC[C@]43C)[C@@H]12 (stereo not given in full)	1.65 µM	3.29 µM	1.92 µM	3.36 µM	1.55 µM	3.04 µM	1.91 µM	3.68 µM	1.74 µM	3.31 µM	1.85 µM	3.29 µM	1.8 µM	3.43 µM	1.92 µM	3.64 µM	1.73 µM	3.26 µM	–	–
CSC1(CC(=O)N2CCCCC2)C(=O)Nc2ccccc21 (stereo not given)	–	> 100 µM	–	–	–	> 100 µM	–	> 100 µM	–	> 100 µM	–	> 100 µM	–	> 100 µM	–	> 100 µM	–	> 100 µM	–	> 100 µM
Fc1cccc(-c2[nH]nc3nc(Nc4cccnc4)sc23)c1	> 100 µM	> 100 µM	15.7 µM	> 100 µM	95.1 µM	> 100 µM	3.3 µM	> 100 µM	6.34 µM	> 100 µM	4.18 µM	> 100 µM	35.6 µM	> 100 µM	> 100 µM	> 100 µM	0.28 µM	> 100 µM	0.421 µM	> 100 µM
COc1ccc(C2c3c(-c4ccccc4)nn(-c4ccccc4)c3Oc3ncn4nc(CC#N)nc4c32)cc1OC (stereo not given)	16.6 µM and 3.29 µM	42.5 µM and > 36.1 µM	–	> 100 µM	> 100 µM	> 100 µM	> 100 µM	> 100 µM	32.6 µM and 12.3 µM	> 100 µM and 49.1 µM	> 100 µM and 13.7 µM	> 100 µM and 68.1 µM	24.2 µM and > 82.3 µM	> 100 µM	–	–	> 100 µM	> 100 µM	–	> 100 µM
Clc1ccc2c(NCCNc3nc(N4CCCC4)nc4ccccc34)ccnc2c1	1.59 µM	5.41 µM	1.65 µM	4.12 µM	1.26 µM	2.51 µM	0.147 µM	1.94 µM	1.71 µM	8.73 µM	0.29 µM	2.54 µM	0.1 µM	1.45 µM	1.8 µM	3.5 µM	1.6 µM	3.11 µM	0.118 µM	3.29 µM
C=CCSSc1ncnc2c1ncn2C1OC(CO)C(O)C1O (stereo not given)	5.05 µM	> 58.1 µM	2.87 µM	> 42.9 µM	3.63 µM	16.8 µM	2.74 µM	13.1 µM	2.28 µM	> 22.4 µM	21.9 µM	> 100 µM	4.07 µM	23.2 µM	1.64 µM	> 100 µM	2.38 µM	> 100 µM	1.2 µM	> 39.4 µM
C/C=C/C1=CN2C(=O)c3cc(OC4OC(C)C(NC)C(C)(O)C4O)c(C)c(O)c3N=C[C@@H]2C1 (stereo not given in full)	0.0342 µM and < 0.01 µM	–	–	> 100 µM	0.0926 µM and < 0.01 µM	–	–	–	–	16.5 µM	–	24.8 µM	0.0951 µM and < 0.01 µM	10.2 µM	0.0918 µM and < 0.01 µM	–	0.0819 µM	0.286 µM	0.0431 µM and < 0.01 µM	> 100 µM
Cc1nc2sc(C(=O)Nc3cccc(Br)c3)c(N)c2cc1C(O)c1ccccc1 (stereo not given)	1.81 µM	20.2 µM	1.42 µM	55.1 µM	1.82 µM	16.5 µM	3.61 µM	20.2 µM	2.89 µM	31 µM	0.9 µM	> 71.3 µM	0.375 µM	> 38 µM	0.622 µM	16.4 µM	0.199 µM	0.449 µM	0.364 µM	> 42.7 µM
C/C(=C\c1ccn(-c2ccc(N)cc2F)n1)[C@@H]1C[C@@H]2O[C@]2(C)CCC[C@H](C)[C@H](O)[C@@H](C)C(=O)C(C)(C)[C@@H](O)CC(=O)O1	0.0822 µM	> 50 µM	0.0408 µM	> 50 µM	0.176 µM	> 50 µM	0.0172 µM	0.442 µM	0.0256 µM	> 50 µM	0.0355 µM	> 50 µM	0.0212 µM	> 50 µM	0.0914 µM	> 50 µM	–	–	0.0197 µM	> 50 µM
COc1cnc2c(c1)C(=O)c1c-2n(CCCNC(C)C)c(=O)c2cc([N+](=O)[O-])ccc12	0.0488 µM	1.42 µM	0.0468 µM	0.541 µM	0.0243 µM	0.135 µM	0.0293 µM	0.225 µM	0.211 µM	3.07 µM	–	–	0.0393 µM	0.643 µM	0.0191 µM	0.123 µM	0.109 µM	0.261 µM	0.0443 µM	0.485 µM
COc1cc2c3c(n(CCCN4CCCC(O)C4)c(=O)c2cc1OC)-c1cc2c(cc1C3=O)OCO2 (stereo not given)	0.593 µM	1.94 µM	0.587 µM	1.45 µM	0.96 µM	2.24 µM	2.51 µM	6.33 µM	0.0879 µM	1.15 µM	0.642 µM	1.51 µM	0.047 µM	7.61 µM	5.01 µM	12.8 µM	0.836 µM	2.98 µM	0.0881 µM	6.87 µM
c1ccc2c(c1)[nH]c1c2ncc2[nH]c3ccccc3c21	–	36.8 µM	–	17.2 µM	–	8.79 µM	–	6.83 µM	–	–	–	22.6 µM	–	10.3 µM	–	3.36 µM	–	–	–	8.3 µM
COC1=C(OC)[C@]2(OC)c3c(O)c(OC)c4c(c3O[C@@]23O[C@@H](c2ccccc2)CC=C3C1=O)[C@@H](O)C[C@H](c1ccccc1)O4	0.311 µM	1.35 µM	0.181 µM	0.35 µM	1.33 µM	2.6 µM	–	–	0.466 µM	1.03 µM	2.01 µM	4.39 µM	0.173 µM	0.334 µM	0.326 µM	1.3 µM	0.27 µM	0.87 µM	0.0972 µM	0.742 µM

SMILES	GI50 [1]	TGI [1]	GI50 [2]	TGI [2]	GI50 [3]	TGI [3]	GI50 [4]	TGI [4]	GI50 [5]	TGI [5]	GI50 [6]	TGI [6]	GI50 [7]	TGI [7]	GI50 [8]	TGI [8]	GI50 [9]	TGI [9]	GI50 [10]	TGI [10]
CC(C)c1cccc(C(C)C)c1NC(=O)CCC(=O)NN	–	> 100 µM	–	> 100 µM	–	> 100 µM	–	36.1 µM	–	–	–	> 100 µM	–	42.9 µM	–	> 100 µM	–	–	–	> 100 µM
Nc1c2ccccc2nc2ccccc12 (tested in a mixture with another compound)	2.13 µM	6.08 µM	0.891 µM	6.44 µM	1.41 µM	3.84 µM	0.753 µM	2.08 µM	2.44 µM	11.1 µM	–	–	1.44 µM	10.1 µM	1.62 µM	3.74 µM	2.57 µM	9 µM	3.81 µM	12.1 µM
Cc1ccccc1NC(=O)c1ccc([N+](=O)[O-])cc1	–	> 100 µM	–	> 100 µM	–	> 100 µM	–	> 100 µM	–	–	–	> 100 µM	–	> 100 µM	–	> 100 µM	–	–	–	> 100 µM
CCOC(=O)NC1CC2CCC1(OC)C=C2C (stereo not given)	–	> 100 µM	–	> 100 µM	–	> 100 µM	–	> 100 µM	–	–	–	> 100 µM	–	> 100 µM	–	> 100 µM	–	–	–	> 100 µM
C[CH2][Sn]([CH2]C)([O]C(=O)c1ccc(F)cc1)[O][Sn]([CH2]C)([CH2]C)[O]C(=O)c1ccc(F)cc1	67.4 µM	> 100 µM	> 100 µM	> 100 µM	> 100 µM	> 100 µM	59.7 µM	> 100 µM	–	–	> 100 µM	> 100 µM	22.8 µM	45.5 µM	> 100 µM	> 100 µM	–	–	20.1 µM	78.6 µM
c1ccc2c3c(ccc2c1)-c1c(ccc2c(NCCCCN4CCCCC4)cccc12)C3	1.07 µM	2.25 µM	2.19 µM	5.61 µM	2.61 µM	7.66 µM	2.33 µM	6.77 µM	1.61 µM	3.23 µM	1.47 µM	2.79 µM	–	–	1.79 µM	3.24 µM	1.91 µM	3.31 µM	1.67 µM	5.85 µM
CCCN1C(=O)CNC(=O)c2[nH]cnc21	–	> 100 µM	–	> 100 µM	–	> 100 µM	–	> 100 µM	–	–	–	> 100 µM	–	> 100 µM	–	> 100 µM	–	–	–	> 100 µM
Nc1ncnc2c1ncn2C1OC(COC2C(CO)OC(OC(C(=O)O)C(O)C(OP(=O)(O)O)C(O)C(=O)O)C(O)C2O)C(O)C1O (stereo not given)	–	> 100 µM	–	> 100 µM	–	–	–	> 100 µM	–	> 100 µM	–	> 100 µM	–	> 100 µM	–	–	–	> 100 µM	–	> 100 µM
Nc1ccccc1C#Cc1ccccc1C#Cc1cnccn1	11.7 µM	25.1 µM	48 µM	> 100 µM	12.1 µM	28.1 µM	–	–	12.7 µM	27.5 µM	44.3 µM	> 100 µM	17.3 µM	31.7 µM	14.6 µM	28 µM	3.48 µM	13.6 µM	26.1 µM	93.1 µM
Cc1c(CC/C(=N\Nc2ccc([N+](=O)[O-])cc2[N+](=O)[O-])c2ccccc2)c2ccccc2n1C	–	> 100 µM	–	> 100 µM	–	> 100 µM	–	> 100 µM	–	–	–	> 100 µM	–	> 100 µM	–	> 100 µM	–	–	–	> 31.6 µM
Cn1sc2ccccc2c1=S	–	9.79 µM	–	22.3 µM	–	28.7 µM	–	26.2 µM	–	–	–	28.8 µM	–	5.2 µM	–	18.1 µM	–	–	–	26.1 µM
O=C(O)[C@@H](NS(=O)(=O)c1ccc([N+](=O)[O-])cc1)c1ccccc1	–	> 100 µM	–	> 100 µM	–	> 100 µM	–	> 100 µM	–	–	–	> 100 µM	–	> 100 µM	–	> 100 µM	–	–	–	> 100 µM
O=C(Cc1ccccc1)NS(=O)(=O)c1ccccc1	–	> 100 µM	–	> 100 µM	–	> 100 µM	–	> 100 µM	–	–	–	> 100 µM	–	> 100 µM	–	> 100 µM	–	–	–	> 100 µM
c1ccc2c(CNCCCCCCCCCCCCNCc3cccc4ccccc34)cccc2c1	–	4.84 µM	–	3.13 µM	–	3.06 µM	–	> 100 µM	–	–	–	3.37 µM	–	3.2 µM	–	3.35 µM	–	–	–	2.11 µM
Cc1ccc(NC(=O)c2cc3ccccc3cc2O)c(C)c1.Cc1ccc(NC(=O)c2cc3ccccc3cc2[O-])c(C)c1.[Ni+2]	3.52 µM	17.2 µM	–	–	3.79 µM	11.9 µM	6.65 µM	24.6 µM	–	5.38 µM	3.44 µM	15.6 µM	4.24 µM	36.8 µM	4.91 µM	21.2 µM	3.38 µM	13.1 µM	3.7 µM	12.9 µM
